What was measured:
[1] = Intestinal microbiota stability (colon and small intestine), rats and mice together; format: in vitro ADME, SD rats and mice; conditions: after 4 h
Procedure: (§1) Plasma from mice, rats, rabbits, and humans was obtained from blood after centrifugation at 3000 r/min for 10 min. Simulated gastric fluid (SGF, pH = 1, containing pepsin) and simulated intestinal fluid (SIF, pH = 6.8, containing trypsin) were configured previously in the experiments. SD rats and mice were collected, and after removing the mucus layer from the small intestine and colon, 20 times the volume of liquid bacterial culture medium was added. An intestinal microbiota suspension was obtained after anaerobic cultivation on a shaking table at 37 °C for 12 h. In the aforementioned systems, E3 was added at a final concentration of 1 μmol/L at 37 °C for different incubation times (0, 10, 20, 30, 60, 120, and 240 min). In liver metabolic stability assays, E3 was incubated with liver microsomes or liver homogenate from mice or rats for 60 min at 37 °C. The stop solution, 5 ng/mL tolbutamide (internal standard, IS) in acetonitrile, was added to stop the metabolic process. Post-centrifugation (18,000× g, 10 min, 4 °C), supernatants were subjected to liquid chromatography–tandem mass spectrometry (LC–MS/MS). Analyte-to-IS peak area ratios quantified residual percentages via Equation (2):Remaining% = (E3peak area/ISpeak area at different time)/(E3peak area/ISpeak area at 0 min) × 100%.(2)

[2] = Subacute oral toxicity test in mice; format: in vivo; conditions: male, mouse, in vivo, 1000 mg/kg, oral, 30 d, read-out: no observed adverse effect level (NOAEL)
Procedure: (§2) The subacute oral toxicity test was performed according to “Guidance on Repeated Dose Toxicity Study for Pharmaceuticals” (2014). […] Eighteen male mice were evenly divided into two groups. Mice of the control group were orally administered with solvent (0.5% CMC-Na). Another group was orally administered with E3 1000 mg/kg. The solvent or E3 was administered once a day for 30 continuous days and withdrawn for 14 d for recovery. After the 30-day treatment, 12 mice (6/group) were chosen at random and sacrificed for necropsy.
(§3) During the study, the clinical symptoms, morbidity, and mortality of mice were observed twice a day at the side of the cage. Changes in appearance, behavior, appetite, gait, secretions, and excretions of the rats were meticulously documented. The body weights were measured before the start of the experiment, and the weights were measured every 2 d thereafter. Echocardiography was performed and evaluated every 10 d. Under anesthesia, blood samples were taken before the autopsy for hematological and clinical biochemistry analysis by an automated hematology analyzer (HEMAVET 950FS, Drew Scientific, TX, USA) and an automated biochemical analyzer (BS-180, Mindray Diagnostics, Shenzhen, China). The following organs were weighed: heart, liver, kidney, spleen, lung, thymus gland, testis, and brain. Furthermore, the corresponding organ/body weight ratio was computed. A comprehensive histopathological analysis was performed on vital tissues and organs.

mice [3] = test: Subacute oral toxicity test in mice; format: in vivo
Procedure: as §2, §3

[4] = Liver microsome metabolic stability, mouse; format: in vitro ADME; conditions: 60 min incubation, 37 °C
Procedure: as §1

mice [5] = test: Diuretic effect of single intragastric administration in mice (metabolic cages); format: in vivo, mouse
Procedure: In a single-dose administration experiment, male wild-type (WT) mice, UT-B^-/- mice, UT-A1^-/- mice, or SD rats were adapted in metabolic cages for 3 d. Food and water were provided ad libitum throughout the experiment. Prior to administration, the bladder of each animal was emptied through gentle abdominal massage, and urine was collected from the metabolic cages every 2 h. Compound E3, suspended in 0.5% CMC-Na at an appropriate concentration, was administered intragastric gavage to the mice or rats (0.16, 0.8, 4, or 20 mg/kg). Vehicle control comprised 0.5% (w/v) CMC-Na. Urinary parameters were determined through the following: volume: Gravimetric analysis (1 g/mL density assumption); osmolality: freezing-point osmometry (Micro-osmometer, […] Associates, Norwood, MA, USA); and urea: diacetyl oxime colorimetry (QuantiChrom® kit, Elabscience, Wuhan, China). In long-term (7 d) diuretic activity experiments, male WT mice, UT-B^-/- mice, UT-A1^-/- mice, and SD rats were acclimatized in metabolic cages (Ugo Basile, Comerio, VA, Italy) for 3 d. Food and water were provided ad libitum throughout the experiment. E3 was suspended in 0.5% CMC-Na and administered at a dose of 4 or 20 mg/kg by intragastric gavage. Urine was collected by metabolic cages every 24 h. Body weight was measured daily. At 4 h after the final administration, a blood sample was obtained by heart puncture. Inner medulla and outer medulla tissue homogenates were prepared, and the supernatant after centrifugation was analyzed for solute concentration and osmolality. Urinary osmolality and urea concentration were measured as above. Serum Na^+, K^+, and Cl^- were measured in a clinical chemistry laboratory, while serum creatinine, ALT, and AST were measured through specific reagent kits (NJJC Bio, Nanjing, China).

[6] = UT-A1−/− mice, 20 mg/kg single dose
[7] = UT-B−/− mice, 20 mg/kg single dose
[8] = mice, single intragastric gavage

For `CC(=O)c1ccc(C(=O)Nc2cccc(NS(=O)(=O)c3ccccc3)c2)o1` [Compound E3, 5-acetyl-N-(3-(phenylsulfonamido)phenyl)furan-2-carboxamide], which “E3 remaining with intestinal microbiota (colon and small intestine)” value [1] is on record?
Its value is “over 82%”.

And the NOAEL at 30 d [2]?
Its NOAEL at 30 d is 1000 mg/kg/day.

And the “appearance, behavior, secretions, and excretions” value (mice [3]; 1000 mg/kg daily oral, 30 days)?
The value was “no apparent abnormality”.

And the “body weight or organ indexes” value (mice [3]; 1000 mg/kg daily oral, 30 days)?
Its value is “no significant change”.

What about the “histopathology of brain, lung, heart, spleen, liver, kidney, testis” value (mice [3]; 1000 mg/kg daily oral, 30 days) of the same molecule?
Its value is “No histopathological toxic lesion”.

What about the “blood parameters and blood biochemical indexes” value (mice [3]; 1000 mg/kg daily oral, 30 days, vs control) of the same molecule?
The value was “no significant changes”.

And the “left ventricular ejection fraction and fractional shortening (cardiac ultrasound)” value (mice [3]; 1000 mg/kg daily, during and after administration)?
Its value is “no significant abnormality”.

And the EOS (mice [3]; 1 g/kg, 30 d, mean, n=9)?
Its EOS is 0.13%.

And the HB (mice [3]; 1 g/kg, 30 d, mean, n=9)?
Its HB is 80.11 g/L.

What about the HCT (mice [3]; 1 g/kg, 30 d, mean, n=9) of the same molecule?
The HCT was 41.04%.

What about the LYM (mice [3]; 1 g/kg, 30 d, mean, n=9) of the same molecule?
The LYM was 74.12%.

And the MCH (mice [3]; 1 g/kg, 30 d, mean, n=9)?
Its MCH is 9.96 pg.

What about the MCHC (mice [3]; 1 g/kg, 30 d, mean, n=9) of the same molecule?
Its MCHC is 195.33 g/L.

And the MCV (mice [3]; 1 g/kg, 30 d, mean, n=9)?
Its MCV is 51.09 fL.

And the MONO (mice [3]; 1 g/kg, 30 d, mean, n=9)?
Its MONO is 3.02%.

And the MPV (mice [3]; 1 g/kg, 30 d, mean, n=9)?
Its MPV is 3.01 fL.

What about the NEU (mice [3]; 1 g/kg, 30 d, mean, n=9) of the same molecule?
The NEU was 22.71%.

What about the PLT (mice [3]; 1 g/kg, 30 d, mean, n=9) of the same molecule?
Its PLT is 1313.22 109/L.

What about the RBC (mice [3]; 1 g/kg, 30 d, mean, n=9) of the same molecule?
The RBC was 8.03 1012/L.

What about the RDW (mice [3]; 1 g/kg, 30 d, mean, n=9) of the same molecule?
The RDW was 16.07%.

And the WBC (mice [3]; 1 g/kg, 30 d, mean, n=9)?
The WBC was 8.37 109/L.

And the “delayed toxicity (14 d recovery period)” value (mice [3]; after 30 d of 1000 mg/kg)?
The value was “no delayed toxicity”.

What about the “remaining amount, mouse liver microsomes” value [4] of the same molecule?
The value was 36.8%.

And the “excretion of non-urea solutes” value (mice [5]; [6])?
Its value is “not significantly changed”.

What about the “urea concentration (urine)” value (mice [5]; [6]) of the same molecule?
Its value is “no significant change”.

What about the urinary osmolality (mice [5]; [6]) of the same molecule?
Its urinary osmolality is “no significant change”.

And the urine output (mice [5]; [6])?
The urine output was “no significant change”.

What about the “excretion of non-urea solutes” value (mice [5]; [7]) of the same molecule?
Its value is “not significantly changed”.

What about the urinary osmolality (mice [5]; [7]) of the same molecule?
Its urinary osmolality is “decreased correspondingly”.

What about the urinary urea (mice [5]; [7]) of the same molecule?
The urinary urea was “decreased correspondingly”.

And the urine output (mice [5]; UT-B−/− mice, 20 mg/kg single dose, 2 h post administration)?
Its urine output is “markedly increased”.

And the urinary osmolality (mice [5]; [8])?
Its urinary osmolality is “decreased”.

What about the urinary urea (mice [5]; [8]) of the same molecule?
The urinary urea was “decreased”.

And the urine output (mice [5]; mice, single intragastric gavage 0.16-20 mg/kg, vs vehicle)?
Its urine output is “significantly increased”.

And the “excretion of non-urea solutes” value (mice [5]; mice, single intragastric gavage, vs control)?
The value was “not significantly different”.

— paper PMC12024912, “Druggability Studies of Benzene Sulfonamide Substituted Diarylamide (E3) as a Novel Diuretic” (Biomedicines, 2025)
